# Biological target: Carbonic anhydrase 1 (Homo sapiens, UniProt P00915)
# Sequence (P00915 whole entry): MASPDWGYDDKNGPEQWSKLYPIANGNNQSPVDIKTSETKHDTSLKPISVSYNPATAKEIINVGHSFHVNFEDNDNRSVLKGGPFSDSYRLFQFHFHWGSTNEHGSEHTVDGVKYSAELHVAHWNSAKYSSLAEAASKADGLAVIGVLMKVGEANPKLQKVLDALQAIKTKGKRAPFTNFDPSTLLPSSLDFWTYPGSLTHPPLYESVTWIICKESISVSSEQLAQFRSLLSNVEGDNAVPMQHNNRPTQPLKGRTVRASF
# Description: Inhibitory activity against Carbonic anhydrase I
row,Ki,SMILES
1,3900 nM,NNc1ccc(S(N)(=O)=O)cc1

# Biological target: Carbonic anhydrase 9 (Homo sapiens, UniProt Q16790)
# Description: Inhibitory activity against Carbonic anhydrase IX
row,Ki,SMILES
1,680 nM,COC(=O)c1ccccc1S(N)(=O)=O
2,64 nM,NS(=O)(=O)c1ccccc1C(=O)NNC(=O)NS(=O)(=O)c1ccc(F)cc1
3,32 nM,Cc1ccccc1S(=O)(=O)NC(=O)NNC(=O)c1ccc(S(N)(=O)=O)cc1
4,70 nM,Cc1ccc(S(=O)(=O)NC(=O)NNC(=O)c2ccccc2S(N)(=O)=O)cc1
5,5.8 nM,Cc1ccc(S(=O)(=O)NC(=O)NNC(=O)c2ccc(S(N)(=O)=O)cc2)cc1
6,24 nM,NS(=O)(=O)c1ccc(C(=O)NNC(=O)Nc2ccc(C34CC5CC(CC(C5)C3)C4)cc2)cc1
7,136 nM,NNc1ccc(S(N)(=O)=O)cc1F
8,149 nM,NNc1ccc(S(N)(=O)=O)cc1Cl
9,7 nM,NS(=O)(=O)c1ccc(C(=O)NNC(=O)Nc2ccc(Cc3ccccc3)cc2)cc1
10,5.4 nM,NS(=O)(=O)c1ccc(C(=O)NNC(=O)NS(=O)(=O)c2ccc(Cl)cc2)cc1
11,7.9 nM,NS(=O)(=O)c1ccc(C(=O)NNC(=O)Nc2ccc(Cl)c(Cl)c2)cc1
12,76 nM,NS(=O)(=O)c1ccccc1C(=O)NNC(=O)NS(=O)(=O)c1ccccc1
13,72 nM,NS(=O)(=O)c1ccccc1C(=O)NNC(=O)NS(=O)(=O)c1ccc(Cl)cc1
14,6.2 nM,NS(=O)(=O)c1ccc(C(=O)NNC(=O)NS(=O)(=O)c2ccc(F)cc2)cc1
15,547 nM,NNC(=O)c1ccccc1S(N)(=O)=O
16,8.3 nM,CC(=O)c1ccc(NC(=O)NNC(=O)c2ccc(S(N)(=O)=O)cc2)cc1
17,8.6 nM,NS(=O)(=O)c1ccc(C(=O)NNC(=O)Nc2ccc(Br)cc2)cc1
18,346 nM,NS(=O)(=O)c1ccc(C(=O)O)cc1 [CARZENIDE]

row,SMILES,Ki
1,NS(=O)(=O)c1ccc(C(=O)NNC(=O)Nc2ccc(Oc3ccccc3)cc2)cc1,7.9 nM
2,NS(=O)(=O)c1ccc(C(=O)NNC(=O)NC2c3ccccc3-c3ccccc32)cc1,13 nM
3,Cc1ccccc1S(=O)(=O)NC(=O)NNC(=O)c1ccccc1S(N)(=O)=O,83 nM
4,NS(=O)(=O)c1ccc(C(=O)NNC(=O)NS(=O)(=O)c2ccccc2)cc1,35 nM
5,NS(=O)(=O)c1ccc(C(=O)NNC(=O)Nc2ccc(-c3ccccc3)cc2)cc1,5.4 nM
